This note sets out measurements from patent publication US7951752B2, “O-cyclopropyl-carboxanilides and their use as fungicides” (Syngenta Crop Protection, Inc., priority 2002, dated 2011).

In the case of `CC(C)CC1CC1c1ccccc1NC(=O)c1cn(C)cc1C(F)(F)F` (stereo not shown) [Compound 3.17, 1-methyl-4-trifluoromethyl-1H-pyrrole-3-carboxylic acid [2-(2-isobutyl-cyclopropyl)phenyl]amide], the melting point is 61 to 65 °C.
